One data set has as its system P-gp (MDR1). Nature of the data set: Bidirectional transport across MDCK-MDR1 cell monolayers. To be noted: dog. The data set is classed as in vitro ADME, canine.
For data set [1], the system named is MDCK-MDR1 cell monolayers. The description is as above. The data set is classed as in vitro ADME, canine.
Data set [2] is described as follows: PAMPA permeability at different pH. In general terms: The PAMPA barrier holds no transporters, so it reflects passive diffusion.
The subject of data set [3] is P-gp. Nature of the data set: Bidirectional transport across Caco-2 cell monolayers. Particulars: human. Background: Passage across Caco-2 layers is used to estimate intestinal permeability.
A further data set deals with hemodynamic effects. To be noted: healthy subjects ref 8; cited from earlier work.
In another data set the test system is beta-blocking activity. Particulars: animal studies ref 7; cited from earlier work.
The test system of the next data set is Caco-2 cell monolayers. The data set can be described thus: Bidirectional transport across Caco-2 cell monolayers. To be noted: 50 µM.
The subject of data set [4] is rat jejunum.
The test system of data set [5] is rat jejunum. The data set can be described thus: Transport study in rat jejunum Ussing chamber. Particulars: after 90 min, leakage indicator.
The conditions of data set [6]: cited from earlier work.
The test system of data set [7] is P-gp. Particulars: mdr1a (−/−) mice intestine ref 29; cited from earlier work.
The conditions of data set [8]: oral administration, after first-pass metabolism; cited from earlier work.
For a further data set, the system named is human jejunum. Particulars: single-pass perfusion, healthy volunteers ref 9; cited from earlier work.
The mark [9] stands for this setting: MDCK-MDR1, pH 7.4, with GG918 0.5 µM.
The mark [10] stands for this setting: Caco-2, pH 7.4, with GG918 0.5 µM.
Where [11] appears, read: 50 µM, MDCK-MDR1, pH 7.4, GG918 0.5 µM.

Usually Papp A→B stands for the apparent permeability from the apical to the basolateral side of a cell layer. Lower therefore signals slow passage. As usually defined, the Papp B→A is the apparent permeability from the basolateral to the apical side of a cell layer. Broadly, the efflux ratio is a quotient of directional permeabilities that is used to spot active efflux.

Entries after “also recorded” stand apart in the source; their conditions may differ.

With `C[C@H]1O[C@@H](O[C@H]2[C@@H](O)C[C@H](O[C@H]3[C@@H](O)C[C@H](O[C@H]4CC[C@@]5(C)[C@H](CC[C@@H]6[C@@H]5C[C@@H](O)[C@]5(C)[C@@H](C7=CC(=O)OC7)CC[C@]65O)C4)O[C@@H]3C)O[C@@H]2C)C[C@H](O)[C@@H]1O` [Digoxin, digoxin], the Papp A→B at 120 min, 0.01 µM with P-gp (MDR1) (MDCK-MDR1, pH 7.4) is 0.26 ± 0.02 ×10⁻⁶ cm/s; in the data set on P-gp (MDR1) (setting [9]), 0.41 ± 0.1 ×10⁻⁶ cm/s; in the data set on P-gp [3] (Caco-2, pH 7.4) it was 0.64 ± 0.03 ×10⁻⁶ cm/s; with P-gp [3] (setting [10]), 1.17 ± 0.07 ×10⁻⁶ cm/s. The Papp B→A at 120 min, 0.01 µM stood at 2 ± 0.01 ×10⁻⁶ cm/s in the data set on P-gp (MDR1) (MDCK-MDR1, pH 7.4); 0.67 ± 0.06 ×10⁻⁶ cm/s in the data set on P-gp (MDR1) (setting [9]); 1.64 ± 0.13 ×10⁻⁶ cm/s in the data set on P-gp [3] (Caco-2, pH 7.4); 1.19 ± 0.05 ×10⁻⁶ cm/s in the data set with P-gp [3] (setting [10]). Further, the efflux ratio at 120 min, 0.01 µM is less than 2 with P-gp (MDR1) (MDCK-MDR1, pH 7.4, with GG918 0.5 µM, Efflux Ratio, Digoxin 0.01 µM, MDR1-MDCK cells, +GG918 0.5 µM); 2.57 ± 0.33 in the data set with P-gp [3] (Caco-2, pH 7.4); less than 2 in the data set on P-gp [3] (setting [10]). In addition, the “Efflux Ratio” value in data set [1] (Digoxin 0.01 µM, MDR1-MDCK cells, +GG918 0.5 µM) came out at 1.52±0.16. Besides, the “effect of apical pH on permeability” value in data set [2] (5 µM digoxin) is on record as “no statistical differences; also recorded: did not show different permeability results”.
Regarding `CC(C)NC[C@@H](O)COc1cccc2ccccc12` [R-propranolol], the hemodynamic effects entry with hemodynamic effects is “ineffective”.
For `CC(C)NCC(O)COc1cccc2ccccc12` (centres unmarked) [S-propranolol], the “effect of GG918 on basolateral and apical permeabilities” value in data set [1] (25 nM, MDCK-MDR1, pH 7.4 on both sides) is listed as “no effect of GG918 was observed”. Moreover, the “Papp, A->B in the presence of GG918” value in [1] (50 µM, MDCK-MDR1, apical pH 6.5) is “decreased significantly”. Further, in [1] (setting [11]), the “Papp, A→B in the absence or presence of GG918” value is on record as “unexplained significant difference” and the “basolateral to apical efflux in the absence or presence of GG918” value is recorded as “no significant differences”. This compound came in with a mass retention in data set [2] (25 nM) of 58±4%. Besides, in data set [2] (50 µM), the mass retention is reported as 12%±1. Further, the “permeability compared with high permeability standard labetalol” value in data set [2] (50 µM each, pH 7.4 both sides) was “higher permeability than 50 µM labetalol”. In data set [2] (50 µM, apical pH 6.5, basolateral pH 7.4), the “simulated efflux ratio (Papp, B->A/ Papp, A->B)” value was 3.39. For the same compound, the “simulated efflux ratio (Papp, B->A/ Papp, A->B)” value in data set [2] (50 µM, apical pH 7.4, basolateral pH 7.4) is 1. The “Papp, A->B” value in [2] (50 µM, pH 6.5→pH 7.4) is reported as 8.1±0.3 × 10^−6 cm/sec. Moreover, the “simulated Papp, B->A” value in [2] (50 µM, pH 7.4→pH 6.5) is 27.3±0.4 × 10^−6 cm/sec. Besides, the Papp in data set [2] (50 µM, pH 7.4→pH 7.4) is listed as 19.2±2.6 × 10^−6 cm/sec. For the same compound, in data set [2] (100 µM), the mass retention is 8%±1 and the “pH dependent transcellular permeability at 100 µM compared with 50 µM” value is reported as “almost identical to that observed at 50 µM”. The “beta-blocking activity, times more potent than R-propranolol” value in the data set with beta-blocking activity is reported as 100 times. For the same compound, in the data set with Caco-2 cell monolayers (Caco-2), the “change of Papp, A->B as apical pH changed from 7.4 to 6.5” value was “markedly decreased” and the “change of Papp, B->A as apical pH changed from 7.4 to 6.5” value is “significantly increased”. Further, in the data set with Caco-2 cell monolayers (Caco-2, apical pH 6.5), the “Papp, A->B in the presence of GG918” value is on record as “small but significant increase” and the “basolateral to apical efflux in the presence or absence of GG918” value is listed as “no significant differences”. For the same compound, in the data set on rat jejunum [4] (not told), the “effect of verapamil on Papp in the absorptive direction” value is given as “did not alter”. In addition, in the data set with rat jejunum [4] (pH 6.5), the “change of Papp mucosal to serosal (absorption) with mucosal pH” value is “statistically significant decrease” and the “effect of mucosal pH on serosal to mucosal permeability (secretion)” value is “didn’t significantly affect”.
As for `O=S1(=O)OC(c2ccc(O)cc2)(c2ccc(O)cc2)c2ccccc21` [phenol red], in the data set on rat jejunum [5], the “permeated from the mucosal to serosal side” value was “less than 1%”.
In the case of `CC(C)NCC(O)COc1cccc2ccccc12.Cl` (centres unmarked) [propranolol HCl], the dose number in data set [6] is 0.006.
On to `CC(C)NCC(O)COc1cccc2ccccc12` (centres unmarked) [propranolol], for which the “permeability, P-gp expressed vs knocked out” value in the data set with P-gp [7] is “not influenced”. For the same compound, the “dose reaching the systemic circulation unchanged” value in [8] is 25%. Also, the effective permeability in the data set with human jejunum was 280 ×10⁻⁶ cm/s.

The record behind these values is article PMC4891189 (Pharmaceutical research, 2015).
